Results reported in patent publication US12043602B2, “Fendiline derivatives” (The Board of Regents of the University of Texas System, priority 2019, dated 2024).
“And” between values parts separate entries of the source, which are not always exact repeats. Equal entries are not always repeated. Where two headings read alike, the source gives them in different places.

Experiments:
[1] = biological target: mGFP-K-RASG12V (Homo sapiens (Human), UniProt P01116, G12V); experiment: K-Ras mislocalization assay (confocal microscopy, Manders coefficient); assay type: cell-based; set-up: key to Emax: Manders coefficient: fraction of mCherry-CAAX co-localizing with GFP-K-Ras; settings: for IC50 / Emax: MDCK cells; for IC50: 48 h treatment, read-out: IC50 (μM), KRASG12V mislocalization; for Emax: maximal effect, Manders coefficient, 48 h
Method: Madine Darby Canine Kidney epithelial cells (MDCK) stably co-expressing mGFP-tagged full length oncogenic mutant K-Ras (GFP—K-RASG12V) or mGFP-LactC2 (peptide probe for phosphatidylserine) and mCherry-tagged to the amino acids 179-189 of H-RasC181S, C184S (mCherry-CAAX, localizes primarily to endomembranes) were grown in DMEM-high glucose/sodium pyruvate/10% FBS. The medium was supplemented with 1× Penicillin/Streptomycin for fluorescence microscopy assays, to avoid any microbial contamination from the test compounds added. KLE and Hec50 cells were maintained in DMEM-F-12 medium supplemented with 10% FBS. Hec-1A and Hec-1B cells were grown in McCoy's 5a medium supplemented with 10% FBS. ESS-1 cells were grown in RPMI 1640 medium supplemented with 20% FBS. MPanc96 cells were grown in DMEM supplemented with 10% FBS, MiaPaCa-2 cells in DMEM supplemented with 10% FBS and 2.5% horse serum and all other cell lines were grown in RPMI 1640 supplemented with 10% FBS. All cancer cell media were supplemented with ×Penicillin/Streptomycin. All cell lines were grown at 37° C. with 5% CO2.
MDCK co-expressing GFP—K-RASG12V or LactC2 and mCherry-CAAX were grown on coverslips, treated with 0.1% vehicle (DMSO) or various concentrations of drugs for 48 h, and fixed with 4% paraformaldehyde. The coverslips were mounted in mowiol and imaged by confocal microscopy (Nikon A1) using a 60× objective. Using ImageJ software v1.42q, images were converted to 8-bit, and a threshold to a control pixel of each image was set. As a measure of K-Ras/LactC2 mislocalization, the fraction of mCherry-CAAX co-localizing with mGFP-K-RASG12V was calculated using a Manders coefficient plugin downloaded from Wright Cell Image Facility. The fraction of mCherry-CAAX co-localizing with mGFP-RASG12V (Mander's coefficient) is proportional to K-Ras mislocalization.

[2] = tested on: MDCK cells co-expressing GFP-K-RASG12V and mCherry-CAAX; experiment: Cytotoxicity in mislocalization screen (death of all cells in well); settings: drug caused death of all cells in well at 30 μM

IC50 [1]	Emax [1]	SMILES	Cytotoxic at 30 μM [2]	other results
1.21 µM	0.59	C=CC(=O)N(CC=C(c1ccccc1)c1ccccc1)[C@H](C)c1ccc(OC)cc1 [NY0235, (R)-N-(3,3-diphenylallyl)-N-(1-(4-methoxyphenyl)ethyl)acrylamide]	No	
12.2 µM	0.79	C(CN1CCCc2ccccc21)=C(c1ccccc1)c1ccccc1 [NY0237, 1-(3,3-diphenylallyl)-1,2,3,4-tetrahydroquinoline]	No	
2.3 µM	0.910	Fc1ccc2c(c1)CCCN2CC=C(c1ccccc1)c1ccccc1 [NY293, 1-(3,3-diphenylallyl)-6-fluoro-1,2,3,4-tetrahydroquinoline]	No	
2.95 µM	0.751	CC1CCc2ccccc2N1CC=C(c1ccccc1)c1ccccc1 (centres unmarked) [NY304, 1-(3,3-diphenylallyl)-2-methyl-1,2,3,4-tetrahydroquinoline]	No	
3.95 µM	0.893	C(CN1CCC(c2ccccc2)CC1)=C(c1ccccc1)c1ccccc1 [NY306, 1-(3,3-diphenylallyl)-4-phenylpiperidine]	No	
4.2 µM	0.858	C(CN1CCN(c2ccccc2)CC1)=C(c1ccccc1)c1ccccc1 [NY307, 1-(3,3-diphenylallyl)-4-phenylpiperazine]	No	
1.69 µM	0.842	COc1ccc([C@@H](C)N(CC=C(c2ccccc2)c2ccccc2)C(=O)C(C)F)cc1 (stereo partly drawn) [NY314, N-(3,3-diphenylallyl)-2-fluoro-N-((R)-1-(4-methoxyphenyl)ethyl)propanamide]	No	
0.329 µM	0.819	COc1ccc([C@@H](C)N(CC=C(c2ccccc2)c2ccccc2)CCN2CCN(C(=O)OC(C)(C)C)CC2)cc1 [NY345, (R)-tert-butyl 4-(2-((3,3-diphenylallyl)(1-(4-methoxyphenyl)ethyl)amino)ethyl) piperazine-1-carboxylate]	No	
5.47 µM	0.963	CCOC(CCCN(CC=C(c1ccccc1)c1ccccc1)[C@H](C)c1ccc(OC)cc1)OCC [NY348, (R)-N-(3,3-diphenylallyl)-4,4-diethoxy-N-(1-(4-methoxyphenyl)ethyl)butan-1-amine]	No	
	0.877	COc1ccc([C@@H](C)N(CC=C(c2ccccc2)c2ccccc2)CCN2CCN(C(C)=O)CC2)cc1 [NY350, (R)-1-(4-(2-((3,3-diphenylallyl)(1-(4-methoxyphenyl)ethyl)amino)ethyl)piperazin-1-yl)ethanone]	No	
1.11 µM	0.851	COc1ccc([C@@H](C)N(CC=C(c2ccccc2)c2ccccc2)CCN2CCN(S(C)(=O)=O)CC2)cc1 [NY351, (R)-N-(1-(4-methoxyphenyl)ethyl)-N-(2-(4-(methylsulfonyl)piperazin-1-yl)ethyl)-3,3-diphenylprop-2-en-1-amine]	No	
1.68 µM	0.920	COc1ccc([C@@H](C)N(CC=C(c2ccccc2)c2ccccc2)CCN2CCN(C(=O)Nc3ccccc3)CC2)cc1 [NY352, (R)-4-(2-((3,3-diphenylallyl)(1-(4-methoxyphenyl)ethyl)amino)ethyl)-N-phenylpiperazine-1-carboxamide]	Yes	
4.19 µM	0.886	C#CCN1CCN(CCN(CC=C(c2ccccc2)c2ccccc2)[C@H](C)c2ccc(OC)cc2)CC1 [NY356, (R)-N-(1-(4-methoxyphenyl)ethyl)-3,3-diphenyl-N-(2-(4-(prop-2-ynyl)piperazin-1-yl)ethyl)prop-2-en-1-amine]	No	
2.55 µM	0.697	C=CC(=O)N1CCN(CCN(CC=C(c2ccccc2)c2ccccc2)[C@H](C)c2ccc(OC)cc2)CC1 [NY0357a, (R)-1-(4-(2-((3,3-diphenylallyl)(1-(4-methoxyphenyl)ethyl)amino)ethyl)piperazin-1-yl)prop-2-en-1-one]	Yes	

SMILES	IC50 [1]	Emax [1]	Cytotoxic at 30 μM [2]	other results
COc1ccc([C@@H](C)N(CC=C(c2ccccc2)c2ccccc2)CCO)cc1 [NY0241, (R)-2-((3,3-diphenylallyl)(1-(4-methoxyphenyl)ethyl)amino)ethanol]	0.2 µM	0.72 ± 0.03	No	Emax ([1]; listed as 11e): 0.72; fold increase in KRAS mislocalization potency ([1]; versus hit 7): 2.5 fold; Cytotoxic at 30 μM ([2]; listed as 11e): did not show any cytotoxic
COc1ccc([C@@H](C)N(CC=C(c2ccccc2)c2ccccc2)CCF)cc1 [NY315, (R)-N-(2-fluoroethyl)-N-(1-(4-methoxyphenyl)ethyl)-3,3-diphenylprop-2-en-1-amine]	10.1 µM	0.52 ± 0.04	No	fold loss of potency to mislocalize KRAS ([1]; in comparison with 7): 20 fold
COc1ccc([C@@H](C)N(CC=C(c2ccccc2)c2ccccc2)CCN2CCOCC2)cc1 [NY316, (R)-N-(1-(4-methoxyphenyl)ethyl)-N-(2-morpholinoethyl)-3,3-diphenylprop-2-en-1-amine]	4.4 µM	0.86 ± 0.02	No	
COc1ccc([C@@H](C)N(CC=C(c2ccccc2)c2ccccc2)CCN2CCNC(=O)C2)cc1 [NY325, (R)-4-(2-((3,3-diphenylallyl)(1-(4-methoxyphenyl)ethyl)amino)ethyl) piperazin-2-one]	7.7 µM	0.81 ± 0.02	No	fold potency loss compared to 12e ([1]; versus 12e): 6 fold
COc1ccc([C@@H](C)N(CC=C(c2ccccc2)c2ccccc2)CCN2CCCCC2)cc1 [NY329, (R)-N-(1-(4-methoxyphenyl)ethyl)-3,3-diphenyl-N-(2-(piperidin-1-yl)ethyl)prop-2-en-1-amine]	0.6 µM	0.83 ± 0.02	Yes	
COc1ccc([C@@H](C)N(C/C=C/c2ccccc2)CCN2CCN(C)CC2)cc1 [NY346, (R,E)-N-(1-(4-methoxyphenyl)ethyl)-N-(2-(4-methylpiperazin-1-yl)ethyl)-3-phenylprop-2-en-1-amine]	14.8 µM	0.84 ± 0.01	No	KRAS PM localization inhibition activity (in words) [1]: complete loss of in vitro activity
COc1ccc([C@@H](C)N(CC=C(c2ccccc2)c2ccccc2)CCN2CCNCC2)cc1 [NY347, (R)-N-(1-(4-methoxyphenyl)ethyl)-3,3-diphenyl-N-(2-(piperazin-1-yl)ethyl)prop-2-en-1-amine]	1.3 µM	0.86 ± 0.02	Yes	Emax ([1]; listed as 12e): 0.90; Cytotoxic at 30 μM ([2]; listed as 12e): cytotoxicity
C=CCN(CCN1CCN(C)CC1)[C@H](C)c1ccc(OC)cc1 [NY349, (R)-N-(1-(4-methoxyphenyl)ethyl)-N-(2-(4-methylpiperazin-1-yl)ethyl)prop-2-en-1-amine]	59.3 µM	0.76 ± 0.02	No	KRAS PM localization inhibition activity (in words) [1]: complete loss of in vitro activity
COc1ccc([C@@H](C)N(CC=C(c2ccccc2)c2ccccc2)CCN2CCN(C(=O)Oc3ccccc3)CC2)cc1 [NY353, (R)-phenyl 4-(2-((3,3-diphenylallyl)(1-(4-methoxyphenyl)ethyl)amino)ethyl) piperazine-1-carboxylate]	3.26 µM	0.920	No	
CCN(CC)CCN(CC=C(c1ccccc1)c1ccccc1)[C@H](C)c1ccc(OC)cc1 [NY0358, (R)-N^1-(3,3-diphenylallyl)-N^2,N^2-diethyl-N^1-(1-(4-methoxyphenyl)ethyl)ethane-1,2-diamine]	1.15 µM and 1.2 µM	0.887	Yes	Emax ([1]; listed as 12b): 0.89 ± 0.01
COc1ccccc1[C@@H](C)N(CC=C(c1ccccc1)c1ccccc1)CCN1CCN(C)CC1 [NY0366, (R)-N-(1-(2-methoxyphenyl)ethyl)-N-(2-(4-methylpiperazin-1-yl)ethyl)-3,3-diphenylprop-2-en-1-amine]	3.81 µM	0.861	Yes	IC50 ([1]; listed as 15b): 3.8 µM; Emax ([1]; listed as 15b): 0.86 ± 0.01
